Experiments:
whole blood of rat = assay: Fibrinolysis effect shown by thromboelastography (TEG) with u-PA; details: for Ma (strength of the blood clot formed): rat whole blood; for Thrombolytic activity compared with the positive compound: according to the Ma values and thromboelastograms
Description: Main Instruments and Reagents: thromboelastography TEG (Udibio); urokinase-type plasminogen activator (u-PA) (Aladdin); reagent 1 (the main component is kaolin); reagent 2 (main component is calcium chloride).
• (1) Test group setting: uPA group: urokinase-type plasminogen activator (u-PA) (1000 U/ml); positive compound/compound 2-1/compound 2-2 group: test compound (200 μM)+u-PA (1000 U/ml); blank group: vehicle. • (2) Formulation of compound solution: the compound was formulated using a 0.5 mg/ml trometamol solution to obtain a 4 mM mother solution, adjusted to pH 9, and diluted to a 2 mM 10× mother solution. The final test concentration was 200 μM. u-PA was formulated as a 50,000 U/ml mother solution using normal saline, and diluted to a 10,000 U/ml 10× mother solution. The final test concentration was 1000 U/ml. • (3) Test: 100 μL of u-PA was added to a sample cup (containing reagent 1) containing 800 μL of the whole blood of rat (anticoagulated with sodium citrate), 100 μL of the test compound was added, and the cup was inverted to mix well. 340 μL of the sample from the sample cup was added to the reaction cup containing 20 μL of reagent 2, and the instrument was allowed to run. The results are shown in Table 2-1, Table 2-2, Table 2-3, FIG. 1, FIG. 2 and FIG. 3. The compound concentration as shown in Table 2-1, Table 2-2, FIG. 1 and FIG. 2 was 200 μM; and the compound concentration as shown in Table 2-3 and FIG. 3 was 100 μM.

Plasminogen (Glu-Typ) = molecular target: T1, Plasminogen (Glu-Typ) (Homo sapiens, UniProt P00747); assay: Activation effect of the compounds on plasminogen (Glu-Typ), u-PA / VLK-pNA kinetic assay; assay type: biochemical; details: for Activation multiples (5 min): slope of A405 vs t^2 divided by slope of control group; for Activation potency on plasminogen compared with the positive compound: at the same concentration
T1 construct: Plasminogen (Glu-Typ) (sigma); purchased sigma (plasminogen); Aladdin (u-PA)
Description: (1) Formulation of Compounds The test compounds of the present invention and the positive compound are all set at three concentration points, i.e., 200 μM, 150 μM and 100 μM, respectively; the final concentration in DMSO was 2.5%.
Plasminogen (Glu-Typ) (sigma); urokinase-type plasminogen activator (u-PA) (Aladdin); vLK-pNA (absin); Multifunctional microplate reader (Thermo).
Plasminogen, the urokinase-type Plasminogen activator (u-PA) and VLK-pNA were formulated in a buffer [Tris-HCl (50 mM, pH 7.4)+NaCl (100 mM)+Tween-80 (0.01%)] to obtain mother solutions at concentrations of 100 nM (5×), 100 IU/ml (5×), and 5 mM (5×), respectively. 20 μl of 5× Plasminogen (Glu-Typ), 20 μl of 5× urokinase-type Plasminogen activator (u-PA) and 20 μl of 5×VLK-pNA were added to a 96-well plate. After mixing uniformly, 40 μl of the test compounds or positive compound were added to the 96-well plate, and a control group (no compound) was set up. The mixture was uniformly mixed well. The kinetic detection was performed using a Thermo multifunctional microplate reader, the detection wavelength was 405 nm, and the activation factor was calculated.
The following results were obtained by plotting the absorbance value at 405 nm (A405) versus time squared (t^2), using the slope of the curve for analysis, and calculating the activation multiples by dividing the slope of the compound group by the slope of the control group (see Table 1-1 and Table 1-2).

[1] = stroke resulting from acute occlusion of large vessels; cited from earlier work
[2] = in vivo; cited from earlier work
[3] = Table 2-3, compound 100 μM + u-PA 1000 U/ml
[4] = Table 2-2, compound 200 μM + u-PA 1000 U/ml
[5] = Table 2-1, compound 200 μM + u-PA 1000 U/ml

T1 sequence (P00747 20-810 limits assumed): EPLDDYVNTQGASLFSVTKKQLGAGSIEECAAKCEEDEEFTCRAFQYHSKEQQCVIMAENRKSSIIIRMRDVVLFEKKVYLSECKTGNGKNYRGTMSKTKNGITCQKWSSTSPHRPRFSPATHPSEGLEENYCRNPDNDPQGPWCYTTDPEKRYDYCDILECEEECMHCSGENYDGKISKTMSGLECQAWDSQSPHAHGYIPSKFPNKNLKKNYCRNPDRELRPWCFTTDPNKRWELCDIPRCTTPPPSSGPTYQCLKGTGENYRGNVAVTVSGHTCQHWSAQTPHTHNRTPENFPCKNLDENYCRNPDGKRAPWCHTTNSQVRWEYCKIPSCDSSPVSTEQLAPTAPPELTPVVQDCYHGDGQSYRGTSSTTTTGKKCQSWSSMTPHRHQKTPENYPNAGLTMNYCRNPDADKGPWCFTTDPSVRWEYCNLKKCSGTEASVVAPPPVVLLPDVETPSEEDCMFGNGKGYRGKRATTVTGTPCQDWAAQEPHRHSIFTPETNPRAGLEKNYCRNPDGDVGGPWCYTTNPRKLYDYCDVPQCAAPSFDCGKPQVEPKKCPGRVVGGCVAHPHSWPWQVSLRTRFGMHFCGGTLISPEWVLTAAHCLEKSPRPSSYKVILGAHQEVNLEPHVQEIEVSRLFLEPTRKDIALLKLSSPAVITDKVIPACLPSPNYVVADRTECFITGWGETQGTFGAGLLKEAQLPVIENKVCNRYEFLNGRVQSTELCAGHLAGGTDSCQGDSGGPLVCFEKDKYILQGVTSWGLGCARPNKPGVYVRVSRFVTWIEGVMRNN

Molecule	Ma (strength of the blood clot formed) (whole blood of rat; [3]) [mm]	Thrombolytic activity compared with the positive compound (whole blood of rat)	Ma (strength of the blood clot formed) (whole blood of rat; [4]) [mm]	Activation multiples (5 min) (Plasminogen (Glu-Typ); Table 1-2, compound 100 μM)	Activation multiples (5 min) (Plasminogen (Glu-Typ); Table 1-2, compound 150 μM)	Activation multiples (5 min) (Plasminogen (Glu-Typ); Table 1-2, compound 200 μM)	Activation potency on plasminogen compared with the positive compound (Plasminogen (Glu-Typ))	Ma (strength of the blood clot formed) (whole blood of rat; [5]) [mm]	Activation multiples (5 min) (Plasminogen (Glu-Typ); Table 1-1, compound 100 μM)	Activation multiples (5 min) (Plasminogen (Glu-Typ); Table 1-1, compound 150 μM)	Activation multiples (5 min) (Plasminogen (Glu-Typ); Table 1-1, compound 200 μM)	recanalization rate after intravenous thrombolysis [1] [%]	half-life [2] [min]
CC(C)=CCC/C(C)=C/CC[C@@]1(C)Oc2c(c(OC(=O)N3CC[S+]([O-])CC3)cc3c2CN(CCC[C@@H](C(=O)O)N2Cc4c(cc(OC(=O)N5CC[S+]([O-])CC5)c5c4O[C@](C)(CC/C=C(\C)CCC=C(C)C)[C@@H](O)C5)C2=O)C3=O)C[C@@H]1O [Compound 2-6, (S)-2,5-bis((2R,3S)-2-((E)-4,8-dimethylnona-3,7-dien-1-yl)-5-((1-oxothiomorpholino-4-carbonyl)oxy)-3-hydroxy-2-methyl-7-oxo-3,4,7,9-tetrahydropyrano[2,3-E]isoindol-8(2H)-yl)pentanoic acid]	8.8	superior thrombolytic activity to the positive compound											
CC(C)=CCC/C(C)=C/CC[C@@]1(C)Oc2c(c(OC(=O)N3CCS(=O)(=O)CC3)cc3c2CN(CCC[C@@H](C(=O)O)N2Cc4c(cc(OC(=O)N5CCS(=O)(=O)CC5)c5c4O[C@](C)(CC/C=C(\C)CCC=C(C)C)[C@@H](O)C5)C2=O)C3=O)C[C@@H]1O [Compound 2-5, (S)-2,5-bis((2R,3S)-2-((E)-4,8-dimethylnona-3,7-dien-1-yl)-5-((1,1-dioxothiomorpholino-4-carbonyl)oxy)-3-hydroxy-2-methyl-7-oxo-3,4,7,9-tetrahydropyrano[2,3-E]isoindol-8(2H)-yl)pentanoic acid]		superior thrombolytic activity to the positive compound	1.9	4.65	52.96	90.00	better activation potency on plasminogen than the positive compounds						
CC(C)=CCC/C(C)=C/CC[C@@]1(C)Oc2c(c(O)cc3c2CN(CCC[C@@H](C(=O)O)N2Cc4c(cc(O)c5c4O[C@](C)(CC/C=C(\C)CCC=C(C)C)[C@@H](O)C5)C2=O)C3=O)C[C@@H]1O [Positive compound, reference compound]	76.4		73.1	3.02	4.54	12.49		72.9	1.71	2.62	8.62		
rt-PA: Recombinant tissue plasminogen activator												≤ 25	3 to 5
CC(C)=CCC/C(C)=C/CC[C@@]1(C)Oc2c(c(OC(=O)N(C)C)cc3c2CN(CCC[C@@H](C(=O)O)N2Cc4c(cc(OC(=O)N(C)C)c5c4O[C@](C)(CC/C=C(\C)CCC=C(C)C)[C@@H](O)C5)C2=O)C3=O)C[C@@H]1O [Compound 2-1, (S)-2,5-bis((2R,3S)-5-((dimethylcarbamoyl)oxy)-2-((E)-4,8-dimethylnona-3,7-dien-1-yl)-3-hydroxy-2-methyl-7-oxo-3,4,7,9-tetrahydropyrano[2,3-E]isoindol-8(2H)-yl)pentanoic acid]		superior thrombolytic activity to the positive compound					better activation potency on plasminogen than the positive compounds	4.7	5.22	15.93	42.97		
CC(C)=CCC/C(C)=C/CC[C@@]1(C)Oc2c(c(OC(=O)N3CCOCC3)cc3c2CN(CCC[C@@H](C(=O)O)N2Cc4c(cc(OC(=O)N5CCOCC5)c5c4O[C@](C)(CC/C=C(\C)CCC=C(C)C)[C@@H](O)C5)C2=O)C3=O)C[C@@H]1O [Compound 2-2, (S)-2,5-bis((2R,3S)-2-((E)-4,8-dimethylnona-3,7-dien-1-yl)-3-hydroxy-2-methyl-5-((morpholino-4-carbonyl)oxy)-7-oxo-3,4,7,9-tetrahydropyrano[2,3-e]isoindol-8(2H)-yl)pentanoi c acid]		superior thrombolytic activity to the positive compound					better activation potency on plasminogen than the positive compounds	4.7	6.66	21.12	42.23		

— patent US20250295683A1, “HETEROCYCLIC COMPOUND, PREPARATION METHOD THEREFOR AND APPLICATION THEREOF” (SICHUAN KELUN-BIOTECH BIOPHARMACEUTICAL CO., LTD., priority 2022, published 2025)
